{"source": "PubChem BioAssay (NCI)", "test_in_all_cases": "inhibition of tumour cell growth, NCI panel, 48 h", "key": {"786-0 renal": {"test_system": "786-0 renal"}, "A498 renal": {"test_system": "A498 renal"}, "A549 NSCLC": {"test_system": "A549 NSCLC"}, "ACHN renal": {"test_system": "ACHN renal"}, "BT-549 breast": {"test_system": "BT-549 breast"}, "CCRF-CEM leukemia": {"test_system": "CCRF-CEM leukemia"}, "COLO 205 colon": {"test_system": "COLO 205 colon"}, "DU-145 prostate": {"test_system": "DU-145 prostate"}, "EKVX NSCLC": {"test_system": "EKVX NSCLC"}, "HCT-116 colon": {"test_system": "HCT-116 colon"}, "HCT-15 colon": {"test_system": "HCT-15 colon"}, "HOP-62 NSCLC": {"test_system": "HOP-62 NSCLC"}, "HOP-92 NSCLC": {"test_system": "HOP-92 NSCLC"}, "HS 578T breast": {"test_system": "HS 578T breast"}, "HT29 colon": {"test_system": "HT29 colon"}, "IGROV1 ovarian": {"test_system": "IGROV1 ovarian"}, "K-562 leukemia": {"test_system": "K-562 leukemia"}, "KM12 colon": {"test_system": "KM12 colon"}, "LOX IMVI melanoma": {"test_system": "LOX IMVI melanoma"}, "M14 melanoma": {"test_system": "M14 melanoma"}, "MALME-3M melanoma": {"test_system": "MALME-3M melanoma"}, "MCF7 breast": {"test_system": "MCF7 breast"}, "MDA-MB-231 breast": {"test_system": "MDA-MB-231 breast"}, "MDA-MB-435": {"test_system": "MDA-MB-435"}, "MDA-N": {"test_system": "MDA-N"}, "MOLT-4 leukemia": {"test_system": "MOLT-4 leukemia"}, "NCI-H226 lung": {"test_system": "NCI-H226 lung"}, "NCI-H23 lung": {"test_system": "NCI-H23 lung"}, "NCI-H460 lung": {"test_system": "NCI-H460 lung"}, "NCI/ADR-RES ovarian": {"test_system": "NCI/ADR-RES ovarian"}, "OVCAR-3 ovarian": {"test_system": "OVCAR-3 ovarian"}, "OVCAR-4 ovarian": {"test_system": "OVCAR-4 ovarian"}, "OVCAR-5 ovarian": {"test_system": "OVCAR-5 ovarian"}, "OVCAR-8 ovarian": {"test_system": "OVCAR-8 ovarian"}, "PC-3 prostate": {"test_system": "PC-3 prostate"}, "RPMI-8226 leukemia": {"test_system": "RPMI-8226 leukemia"}, "RXF 393 renal": {"test_system": "RXF 393 renal"}, "SF-268 CNS": {"test_system": "SF-268 CNS"}, "SF-295 CNS": {"test_system": "SF-295 CNS"}, "SF-539 CNS": {"test_system": "SF-539 CNS"}, "SK-MEL-2 melanoma": {"test_system": "SK-MEL-2 melanoma"}, "SK-MEL-28 melanoma": {"test_system": "SK-MEL-28 melanoma"}, "SK-MEL-5 melanoma": {"test_system": "SK-MEL-5 melanoma"}, "SK-OV-3 ovarian": {"test_system": "SK-OV-3 ovarian"}, "SN12C renal": {"test_system": "SN12C renal"}, "SNB-19 CNS": {"test_system": "SNB-19 CNS"}, "SNB-75 CNS": {"test_system": "SNB-75 CNS"}, "SR leukemia": {"test_system": "SR leukemia"}, "SW-620 colon": {"test_system": "SW-620 colon"}, "T-47D breast": {"test_system": "T-47D breast"}, "TK-10 renal": {"test_system": "TK-10 renal"}, "U251 CNS": {"test_system": "U251 CNS"}, "UACC-257 melanoma": {"test_system": "UACC-257 melanoma"}, "UACC-62 melanoma": {"test_system": "UACC-62 melanoma"}, "UO-31 renal": {"test_system": "UO-31 renal"}}, "note": "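Values below derive from 48-hour exposures of cells grown in 96-well plates, with endpoints linearly interpolated between the two concentrations bracketing the appropriate inhibition level. TGI: total growth inhibition.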"}
{"smiles": "O=C(N/S(=N/S(=O)(=O)c1ccc(Br)cc1)C(Cl)(Cl)Cl)c1ccccc1", "note": "(stereo not given)", "values": [{"measurement": "TGI", "setting": "786-0 renal", "result": "> 100", "unit": "µM"}, {"measurement": "TGI", "setting": "A498 renal", "result": "> 100", "unit": "µM"}, {"measurement": "TGI", "setting": "A549 NSCLC", "result": "> 100", "unit": "µM"}, {"measurement": "TGI", "setting": "ACHN renal", "result": "> 100", "unit": "µM"}, {"measurement": "TGI", "setting": "BT-549 breast", "result": "> 100", "unit": "µM"}, {"measurement": "TGI", "setting": "CCRF-CEM leukemia", "result": "> 100", "unit": "µM"}, {"measurement": "TGI", "setting": "COLO 205 colon", "result": "> 100", "unit": "µM"}, {"measurement": "TGI", "setting": "DU-145 prostate", "result": "> 100", "unit": "µM"}, {"measurement": "TGI", "setting": "EKVX NSCLC", "result": "> 100", "unit": "µM"}, {"measurement": "TGI", "setting": "HCT-116 colon", "result": "> 100", "unit": "µM"}, {"measurement": "TGI", "setting": "HCT-15 colon", "result": "> 100", "unit": "µM"}, {"measurement": "TGI", "setting": "HOP-62 NSCLC", "result": "> 100", "unit": "µM"}, {"measurement": "TGI", "setting": "HOP-92 NSCLC", "result": 82, "unit": "µM"}, {"measurement": "TGI", "setting": "HS 578T breast", "result": "> 100", "unit": "µM"}, {"measurement": "TGI", "setting": "HT29 colon", "result": "> 100", "unit": "µM"}, {"measurement": "TGI", "setting": "IGROV1 ovarian", "result": "> 100", "unit": "µM"}, {"measurement": "TGI", "setting": "K-562 leukemia", "result": "> 100", "unit": "µM"}, {"measurement": "TGI", "setting": "KM12 colon", "result": "> 100", "unit": "µM"}, {"measurement": "TGI", "setting": "LOX IMVI melanoma", "result": "> 100", "unit": "µM"}, {"measurement": "TGI", "setting": "M14 melanoma", "result": "> 100", "unit": "µM"}, {"measurement": "TGI", "setting": "MALME-3M melanoma", "result": "> 100", "unit": "µM"}, {"measurement": "TGI", "setting": "MCF7 breast", "result": "> 100", "unit": "µM"}, {"measurement": "TGI", "setting": "MDA-MB-231 breast", "result": "> 100", "unit": "µM"}, {"measurement": "TGI", "setting": "MDA-MB-435", "result": "> 100", "unit": "µM"}, {"measurement": "TGI", "setting": "MDA-N", "result": "> 100", "unit": "µM"}, {"measurement": "TGI", "setting": "MOLT-4 leukemia", "result": "> 100", "unit": "µM"}, {"measurement": "TGI", "setting": "NCI-H226 lung", "result": "> 100", "unit": "µM"}, {"measurement": "TGI", "setting": "NCI-H23 lung", "result": "> 100", "unit": "µM"}, {"measurement": "TGI", "setting": "NCI-H460 lung", "result": "> 100", "unit": "µM"}, {"measurement": "TGI", "setting": "NCI/ADR-RES ovarian", "result": "> 100", "unit": "µM"}, {"measurement": "TGI", "setting": "OVCAR-3 ovarian", "result": "> 100", "unit": "µM"}, {"measurement": "TGI", "setting": "OVCAR-4 ovarian", "result": "> 100", "unit": "µM"}, {"measurement": "TGI", "setting": "OVCAR-5 ovarian", "result": "> 100", "unit": "µM"}, {"measurement": "TGI", "setting": "OVCAR-8 ovarian", "result": "> 100", "unit": "µM"}, {"measurement": "TGI", "setting": "PC-3 prostate", "result": "> 100", "unit": "µM"}, {"measurement": "TGI", "setting": "RPMI-8226 leukemia", "result": "> 100", "unit": "µM"}, {"measurement": "TGI", "setting": "RXF 393 renal", "result": "> 100", "unit": "µM"}, {"measurement": "TGI", "setting": "SF-268 CNS", "result": "> 100", "unit": "µM"}, {"measurement": "TGI", "setting": "SF-295 CNS", "result": "> 100", "unit": "µM"}, {"measurement": "TGI", "setting": "SF-539 CNS", "result": "> 100", "unit": "µM"}, {"measurement": "TGI", "setting": "SK-MEL-2 melanoma", "result": "> 100", "unit": "µM"}, {"measurement": "TGI", "setting": "SK-MEL-28 melanoma", "result": "> 100", "unit": "µM"}, {"measurement": "TGI", "setting": "SK-MEL-5 melanoma", "result": "> 100", "unit": "µM"}, {"measurement": "TGI", "setting": "SK-OV-3 ovarian", "result": "> 100", "unit": "µM"}, {"measurement": "TGI", "setting": "SN12C renal", "result": "> 100", "unit": "µM"}, {"measurement": "TGI", "setting": "SNB-19 CNS", "result": "> 100", "unit": "µM"}, {"measurement": "TGI", "setting": "SNB-75 CNS", "result": "> 100", "unit": "µM"}, {"measurement": "TGI", "setting": "SR leukemia", "result": "> 100", "unit": "µM"}, {"measurement": "TGI", "setting": "SW-620 colon", "result": "> 100", "unit": "µM"}, {"measurement": "TGI", "setting": "T-47D breast", "result": "> 100", "unit": "µM"}, {"measurement": "TGI", "setting": "TK-10 renal", "result": "> 100", "unit": "µM"}, {"measurement": "TGI", "setting": "U251 CNS", "result": "> 100", "unit": "µM"}, {"measurement": "TGI", "setting": "UACC-257 melanoma", "result": "> 100", "unit": "µM"}, {"measurement": "TGI", "setting": "UACC-62 melanoma", "result": "> 100", "unit": "µM"}, {"measurement": "TGI", "setting": "UO-31 renal", "result": "> 100", "unit": "µM"}]}
